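1) Cells in 96-well plates. 2) Compound, 48 h, 5 concentrations. 3) Linear interpolation between surrounding doses. 4) Unreached endpoint = highest concentration. The concentration for 50% growth inhibition is given as GI50. The concentration for full growth arrest is given as TGI.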
Tests used:
Assay in all cases: DTP human tumour cell line panel, 48 h
SF-295 CNS = system: SF-295 CNS
HCT-116 colon = system: HCT-116 colon
K-562 leukemia = system: K-562 leukemia
TK-10 renal = system: TK-10 renal
CCRF-CEM leukemia = system: CCRF-CEM leukemia
HT29 colon = system: HT29 colon
HS 578T breast = system: HS 578T breast
NCI-H23 lung = system: NCI-H23 lung
HCC-2998 colon = system: HCC-2998 colon
SK-MEL-2 melanoma = system: SK-MEL-2 melanoma
ACHN renal = system: ACHN renal
OVCAR-8 ovarian = system: OVCAR-8 ovarian
OVCAR-3 ovarian = system: OVCAR-3 ovarian
MCF7 breast = system: MCF7 breast
M14 melanoma = system: M14 melanoma
SW-620 colon = system: SW-620 colon
A498 renal = system: A498 renal
SK-OV-3 ovarian = system: SK-OV-3 ovarian
NCI-H226 lung = system: NCI-H226 lung
SK-MEL-5 melanoma = system: SK-MEL-5 melanoma
HL-60(TB) leukemia = system: HL-60(TB) leukemia
RXF 393 renal = system: RXF 393 renal
SNB-75 CNS = system: SNB-75 CNS
PC-3 prostate = system: PC-3 prostate
NCI-H522 lung = system: NCI-H522 lung
NCI-H460 lung = system: NCI-H460 lung
IGROV1 ovarian = system: IGROV1 ovarian
MDA-MB-468 breast = system: MDA-MB-468 breast
MALME-3M melanoma = system: MALME-3M melanoma
SK-MEL-28 melanoma = system: SK-MEL-28 melanoma
LOX IMVI melanoma = system: LOX IMVI melanoma
MDA-MB-231 breast = system: MDA-MB-231 breast
DU-145 prostate = system: DU-145 prostate
UACC-62 melanoma = system: UACC-62 melanoma
CAKI-1 renal = system: CAKI-1 renal
HOP-92 NSCLC = system: HOP-92 NSCLC
786-0 renal = system: 786-0 renal
SF-268 CNS = system: SF-268 CNS
SNB-19 CNS = system: SNB-19 CNS
UACC-257 melanoma = system: UACC-257 melanoma
RPMI-8226 leukemia = system: RPMI-8226 leukemia
T-47D breast = system: T-47D breast
EKVX NSCLC = system: EKVX NSCLC
KM12 colon = system: KM12 colon
SN12C renal = system: SN12C renal
A549 NSCLC = system: A549 NSCLC
NCI/ADR-RES ovarian = system: NCI/ADR-RES ovarian
OVCAR-5 ovarian = system: OVCAR-5 ovarian
OVCAR-4 ovarian = system: OVCAR-4 ovarian
MDA-MB-435 = system: MDA-MB-435
U251 CNS = system: U251 CNS
COLO 205 colon = system: COLO 205 colon
HCT-15 colon = system: HCT-15 colon
HOP-62 NSCLC = system: HOP-62 NSCLC
SF-539 CNS = system: SF-539 CNS
MOLT-4 leukemia = system: MOLT-4 leukemia
UO-31 renal = system: UO-31 renal
BT-549 breast = system: BT-549 breast

## COc1ccc2c(c1)c(/C=N/Nc1ccc3ccccc3n1)cn2C
SF-295 CNS
  GI50: 11.2 µM
  TGI: 24.4 µM
HCT-116 colon
  GI50: 8.18 µM
  TGI: 26.5 µM
K-562 leukemia
  GI50: 3.36 µM
  TGI: > 100 µM
TK-10 renal
  GI50: 22.5 µM
  TGI: 39 µM
CCRF-CEM leukemia
  GI50: 5.52 µM
  TGI: 86.7 µM
HT29 colon
  GI50: 5.46 µM
  TGI: 23.1 µM
HS 578T breast
  GI50: 13 µM
  TGI: 33.3 µM
NCI-H23 lung
  GI50: 11.8 µM
  TGI: 28.4 µM
HCC-2998 colon
  GI50: 3.69 µM
  TGI: 15.4 µM
SK-MEL-2 melanoma
  GI50: 16.8 µM
  TGI: 35.1 µM
ACHN renal
  GI50: 7.38 µM
  TGI: 21.4 µM
OVCAR-8 ovarian
  GI50: 14.7 µM
  TGI: 35.7 µM
OVCAR-3 ovarian
  GI50: 13.9 µM
  TGI: 31.4 µM
MCF7 breast
  GI50: 4.45 µM
  TGI: 24.2 µM
M14 melanoma
  GI50: 13.4 µM
  TGI: 30.1 µM
SW-620 colon
  GI50: 7.46 µM
  TGI: 35.2 µM
A498 renal
  GI50: 17.4 µM
  TGI: 33 µM
SK-OV-3 ovarian
  GI50: 16.3 µM
  TGI: 36.5 µM
NCI-H226 lung
  GI50: 7.95 µM
  TGI: 29.6 µM
SK-MEL-5 melanoma
  GI50: 10.4 µM
  TGI: 22.7 µM
HL-60(TB) leukemia
  GI50: 10.4 µM
  TGI: 41.7 µM
RXF 393 renal
  GI50: 5.03 µM
  TGI: 19.1 µM
SNB-75 CNS
  GI50: 4.97 µM
  TGI: 22.2 µM
PC-3 prostate
  GI50: 8.25 µM
  TGI: 23.9 µM
NCI-H522 lung
  GI50: 14 µM
  TGI: 39 µM
NCI-H460 lung
  GI50: 7.8 µM
  TGI: 30 µM
IGROV1 ovarian
  GI50: 10.8 µM
  TGI: 26.5 µM
MDA-MB-468 breast
  GI50: 3.91 µM
  TGI: 16.1 µM
MALME-3M melanoma
  GI50: 18.6 µM
  TGI: 38.7 µM
SK-MEL-28 melanoma
  GI50: 14.9 µM
  TGI: 30.3 µM
LOX IMVI melanoma
  GI50: 1.97 µM
  TGI: 5.27 µM
MDA-MB-231 breast
  GI50: 4.36 µM
  TGI: 19 µM
DU-145 prostate
  GI50: 12.3 µM
  TGI: 25.5 µM
UACC-62 melanoma
  GI50: 12.7 µM
  TGI: 26.8 µM
CAKI-1 renal
  GI50: 5.95 µM
  TGI: 21.3 µM
HOP-92 NSCLC
  GI50: 1.58 µM
  TGI: 11.5 µM
786-0 renal
  GI50: 15.3 µM
  TGI: 31.6 µM
SF-268 CNS
  GI50: 14.3 µM
  TGI: 31.3 µM
SNB-19 CNS
  GI50: 15.8 µM
  TGI: 32.4 µM
UACC-257 melanoma
  GI50: 15.4 µM
  TGI: 30.2 µM
RPMI-8226 leukemia
  GI50: 7.83 µM
  TGI: 42.9 µM
T-47D breast
  GI50: 8.62 µM
  TGI: 36.5 µM
EKVX NSCLC
  GI50: 2.3 µM
  TGI: 19.4 µM
KM12 colon
  GI50: 5.47 µM
  TGI: 21.9 µM
SN12C renal
  GI50: 7.61 µM
  TGI: 22.5 µM
A549 NSCLC
  GI50: 9.48 µM
  TGI: 28.7 µM
NCI/ADR-RES ovarian
  GI50: 10.4 µM
  TGI: 30.3 µM
OVCAR-5 ovarian
  GI50: 11.9 µM
  TGI: 24.7 µM
OVCAR-4 ovarian
  GI50: 13.2 µM
  TGI: 33.3 µM
MDA-MB-435
  GI50: 8.41 µM
  TGI: 23.1 µM
U251 CNS
  GI50: 13.3 µM
  TGI: 32.9 µM
COLO 205 colon
  GI50: 15.9 µM
  TGI: 39.2 µM
HCT-15 colon
  GI50: 3.4 µM
  TGI: 13.3 µM
HOP-62 NSCLC
  GI50: 11.3 µM
  TGI: 44.9 µM
SF-539 CNS
  GI50: 10.3 µM
  TGI: 22.2 µM
MOLT-4 leukemia
  GI50: 6.5 µM
  TGI: 39.1 µM
UO-31 renal
  GI50: 1.68 µM
  TGI: 13.4 µM
BT-549 breast
  GI50: 15.2 µM
  TGI: 30.2 µM
